{"source": "paper PMC5084670", "about": "(Cancer Science, 2016)", "key": {"[1]": {"assay": "Pharmacokinetics of sonidegib in plasma", "format": "in vivo, human", "details": "for Exposure accumulation as the AUC ratio / AUC accumulation: cycle 1 day 15; for AUC(0-t) / Tmax / Cmax: human, plasma, oral; for Tmax: T max; for Cmax: C max"}, "[2]": {"details": "cited from earlier work"}}, "data": [{"molecule": "Cc1c(C(=O)Nc2ccc(N3C[C@@H](C)O[C@@H](C)C3)nc2)cccc1-c1ccc(OC(F)(F)F)cc1", "note": "[Sonidegib]", "values": [{"measurement": "Steady state", "setting": "[1]; both groups", "result": "not achieved within cycle 1"}, {"measurement": "Plasma concentration at 168 h after a single dose", "setting": "[1]; both groups at every dose", "result": "detected"}, {"measurement": "Exposure accumulation as the AUC ratio", "setting": "[1]; group 1, 400 mg", "result": 4.9, "unit": "fold"}, {"measurement": "Accumulation in trough levels", "setting": "[1]; group 1, 400 mg, cycle 2 day 1 vs 24-h post-dose concentration in run-in", "result": 12.4, "unit": "fold"}, {"measurement": "Accumulation in trough levels", "setting": "[1]; group 1, 400 mg, cycle 2 day 22 vs 24-h post-dose concentration in run-in", "result": 19.6, "unit": "fold"}, {"measurement": "Exposure accumulation as the AUC ratio", "setting": "[1]; group 1, 600 mg", "result": 4.6, "unit": "fold"}, {"measurement": "Accumulation in trough levels", "setting": "[1]; group 1, 600 mg, cycle 2 day 1 vs 24-h post-dose concentration in run-in", "result": 14.3, "unit": "fold"}, {"measurement": "Accumulation in trough levels", "setting": "[1]; group 1, 600 mg, cycle 2 day 22 vs 24-h post-dose concentration in run-in", "result": 19.9, "unit": "fold"}, {"measurement": "AUC accumulation", "setting": "[1]; group 2, 400 mg", "result": "approximately 4.3 fold"}, {"measurement": "Trough accumulation", "setting": "[1]; group 2, 400 mg, cycle 2 day 1", "result": 13.9, "unit": "fold"}, {"measurement": "Trough accumulation", "setting": "[1]; group 2, 400 mg, cycle 2 day 22", "result": 16.3, "unit": "fold"}, {"measurement": "AUC accumulation", "setting": "[1]; group 2, 600 mg", "result": "~4.2", "unit": "fold"}, {"measurement": "Trough accumulation", "setting": "[1]; group 2, 600 mg, cycle 2 day 1", "result": 12.3, "unit": "fold"}, {"measurement": "Trough accumulation", "setting": "[1]; group 2, 600 mg, cycle 2 day 22", "result": 13.8, "unit": "fold"}, {"measurement": "AUC accumulation", "setting": "[1]; group 2, 800 mg", "result": "~6.0", "unit": "fold"}, {"measurement": "AUC(0-t)", "setting": "[1]; 400 mg q.d., AUClast, cycle 1, day 15 (last sampling 24 h), group 2, 400 mg q.d., n = 9, geometric mean (% CV)", "result": 12300, "unit": "ng·h/mL"}, {"measurement": "AUC(0-t)", "setting": "[1]; 400 mg, AUC0–24, pharmacokinetic run-in (single dose), group 1, 400 mg, n = 12, geometric mean (% CV)", "result": 2010, "unit": "ng·h/mL"}, {"measurement": "AUC(0-t)", "setting": "[1]; 400 mg, AUC0–24, pharmacokinetic run-in (single dose), group 2, 400 mg, n = 12, geometric mean (% CV)", "result": 2890, "unit": "ng·h/mL"}, {"measurement": "Tmax", "setting": "[1]; 400 mg, cycle 1, day 15, group 1, 400 mg q.d., n = 12, median", "result": 2, "unit": "h"}, {"measurement": "Tmax", "setting": "[1]; 400 mg, pharmacokinetic run-in (single dose), group 1, 400 mg, n = 12, median", "result": 3, "unit": "h"}, {"measurement": "Tmax", "setting": "[1]; 400 mg, pharmacokinetic run-in (single dose), group 2, 400 mg, n = 12, median", "result": 3, "unit": "h"}, {"measurement": "AUC(0-t)", "setting": "[1]; 600 mg, AUC0–24, pharmacokinetic run-in (single dose), group 1, 600 mg, n = 9, geometric mean (% CV)", "result": 3330, "unit": "ng·h/mL"}, {"measurement": "AUC(0-t)", "setting": "[1]; 600 mg, AUC0–24, pharmacokinetic run-in (single dose), group 2, 600 mg, n = 8, geometric mean (% CV)", "result": 3420, "unit": "ng·h/mL"}, {"measurement": "Cmax", "setting": "[1]; 600 mg, cycle 1, day 15, group 1, 600 mg q.d., n = 8, geometric mean (% CV)", "result": 1010, "unit": "ng/mL"}, {"measurement": "Tmax", "setting": "[1]; 600 mg, cycle 1, day 15, group 1, 600 mg q.d., n = 8, median", "result": 2, "unit": "h"}, {"measurement": "Tmax", "setting": "[1]; 600 mg, cycle 1, day 15, group 2, 600 mg q.d., n = 5, median", "result": 4, "unit": "h"}, {"measurement": "Tmax", "setting": "[1]; 600 mg, pharmacokinetic run-in (single dose), group 1, 600 mg, n = 9, median", "result": 2, "unit": "h"}, {"measurement": "Tmax", "setting": "[1]; 600 mg, pharmacokinetic run-in (single dose), group 2, 600 mg, n = 8, median", "result": 3, "unit": "h"}, {"measurement": "AUC(0-t)", "setting": "[1]; 800 mg, AUC0–24, pharmacokinetic run-in (single dose), group 2, 800 mg, n = 4, geometric mean (% CV)", "result": 3650, "unit": "ng·h/mL"}, {"measurement": "Cmax", "setting": "[1]; 800 mg, cycle 1, day 15, group 2, 800 mg q.d., n = 2, geometric mean (% CV)", "result": 1230, "unit": "ng/mL"}, {"measurement": "Tmax", "setting": "[1]; 800 mg, pharmacokinetic run-in (single dose), group 2, 800 mg, n = 4, median", "result": 2, "unit": "h"}, {"measurement": "Tmax", "setting": "[1]; after a single dose in run-in period and repeated dosing in cycle 1 day 15, both groups", "result": "2 to 4", "unit": "h"}, {"measurement": "Commonly reported AE: alopecia", "setting": "[2]", "result": 63, "unit": "%"}, {"measurement": "Commonly reported AE: asthenia", "setting": "[2]", "result": 36, "unit": "%"}, {"measurement": "Commonly reported AE: dysgeusia", "setting": "[2]", "result": 70, "unit": "%"}, {"measurement": "Commonly reported AE: weight loss", "setting": "[2]", "result": 46, "unit": "%"}]}]}
